{"source": "ChEMBL document CHEMBL6153089", "about": "“Design, Synthesis, and Biological Evaluation of Thieno[3,2-d]pyrimidine Derivatives as the First Bifunctional PI3Kδ Isoform Selective/Bromodomain and Extra-Terminal Inhibitors” (J Med Chem, 2025)", "key": {"[1]": {"system": "SUD4", "experiment": "Induction of apoptosis in human SU-DHL-4 cells assessed as early apoptotic cells at 0.25 uM incubated for 24 hrs by Annexin V-FITC/PI staining based flow cytometric analysis (reference value: 25.3 %)", "format": "functional"}, "[2]": {"target": "Phosphatidylinositol 4,5-bisphosphate 3-kinase catalytic subunit gamma isoform (Homo sapiens, UniProt P48736)", "sequence (P48736 whole entry, looked up, canonical isoform)": "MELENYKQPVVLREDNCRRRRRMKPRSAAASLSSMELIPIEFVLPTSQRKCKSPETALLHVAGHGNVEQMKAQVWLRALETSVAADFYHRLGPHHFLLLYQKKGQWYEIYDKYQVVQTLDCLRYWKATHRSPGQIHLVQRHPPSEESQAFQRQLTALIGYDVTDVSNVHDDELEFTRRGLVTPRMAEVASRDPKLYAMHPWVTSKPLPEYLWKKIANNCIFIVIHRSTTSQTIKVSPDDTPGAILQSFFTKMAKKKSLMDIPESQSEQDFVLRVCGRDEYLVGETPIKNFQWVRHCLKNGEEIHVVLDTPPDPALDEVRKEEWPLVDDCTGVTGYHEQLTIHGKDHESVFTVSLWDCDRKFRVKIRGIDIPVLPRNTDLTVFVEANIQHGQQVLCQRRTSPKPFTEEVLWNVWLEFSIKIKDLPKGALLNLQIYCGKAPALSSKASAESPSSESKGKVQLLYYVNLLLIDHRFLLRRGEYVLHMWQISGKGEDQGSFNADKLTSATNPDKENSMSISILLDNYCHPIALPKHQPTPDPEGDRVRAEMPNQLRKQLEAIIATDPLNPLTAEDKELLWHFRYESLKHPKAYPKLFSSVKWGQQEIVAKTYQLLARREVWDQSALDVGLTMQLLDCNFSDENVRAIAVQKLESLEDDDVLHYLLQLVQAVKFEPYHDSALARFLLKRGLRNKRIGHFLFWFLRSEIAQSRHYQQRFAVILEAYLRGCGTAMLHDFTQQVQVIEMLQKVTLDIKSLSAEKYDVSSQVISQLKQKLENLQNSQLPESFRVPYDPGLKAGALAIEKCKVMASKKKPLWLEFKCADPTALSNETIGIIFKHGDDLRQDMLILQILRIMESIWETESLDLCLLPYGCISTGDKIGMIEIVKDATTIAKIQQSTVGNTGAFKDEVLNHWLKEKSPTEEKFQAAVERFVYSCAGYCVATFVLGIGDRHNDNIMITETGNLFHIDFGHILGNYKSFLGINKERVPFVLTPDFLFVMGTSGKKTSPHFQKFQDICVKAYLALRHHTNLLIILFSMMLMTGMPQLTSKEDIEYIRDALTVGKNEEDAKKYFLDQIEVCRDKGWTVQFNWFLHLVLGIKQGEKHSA", "experiment": "Inhibition of human PI3Kgamma at 1 uM relative to control"}, "[3]": {"experiment": "Half-life in female BALB/c mouse at 20 mg/kg, po measured after 24 hrs by LC-MS/MS analysis", "format": "ADME, organism-based", "conditions": "in vivo"}, "[4]": {"system": "SU-DHL-4", "experiment": "Inhibition of AKT phosphorylation in human SU-DHL-4 cells at 0.25 to 1 uM incubated for 12 hrs by Western blot analysis", "format": "cell-based", "conditions": "dose 0.25-1 µM"}, "[5]": {"experiment": "Clearance in female BALB/c mouse at 1 mg/kg, iv measured after 12 hrs by LC-MS/MS analysis", "format": "ADME, organism-based", "conditions": "in vivo"}, "[6]": {"system": "SUD4", "experiment": "Induction of apoptosis in human SU-DHL-4 cells assessed as decrease in Bcl-2 protein expression at 0.25 to 1 uM incubated for 12 hrs by Western blot analysis", "format": "functional, cell-based", "conditions": "dose 0.25-1 µM"}, "[7]": {"system": "SU-DHL-6", "experiment": "Induction of apoptosis in human SU-DHL-6 cells assessed as decrease in Bcl-2 protein expression at 0.25 to 1 uM incubated for 12 hrs by Western blot analysis", "format": "functional, cell-based", "conditions": "dose 0.25-1 µM"}, "[8]": {"system": "SU-DHL-6", "experiment": "Induction of apoptosis in human SU-DHL-6 cells assessed as late apoptotic cells at 0.25 uM incubated for 24 hrs by Annexin V-FITC/PI staining based flow cytometric analysis (reference value: 6.43 %)", "format": "functional"}, "[9]": {"experiment": "Oral bioavailability in female BALB/c mouse at 20 mg/kg measured after 24 hrs by LC-MS/MS analysis", "format": "ADME, organism-based", "conditions": "in vivo"}, "[10]": {"system": "SU-DHL-6", "experiment": "Induction of apoptosis in human SU-DHL-6 cells assessed as early apoptotic cells at 0.5 uM incubated for 24 hrs by Annexin V-FITC/PI staining based flow cytometric analysis (reference value: 32.1 %)", "format": "functional"}, "[11]": {"target": "Bromodomain-containing protein 4 (Homo sapiens, UniProt O60885)", "experiment": "Inhibition of His-tagged BRD4-BD1 (unknown origin) incubated for 30 mins in presence of ATP by Alphascreen assay"}, "[12]": {"system": "SU-DHL-6", "experiment": "Induction of apoptosis in human SU-DHL-6 cells assessed as viable cells at 0.5 uM incubated for 24 hrs by Annexin V-FITC/PI staining based flow cytometric analysis (reference value: 61.2 %)", "format": "functional", "conditions": "read-out: Activity"}, "[13]": {"target": "Serine/threonine-protein kinase mTOR (Homo sapiens, UniProt P42345)", "experiment": "Inhibition of mTOR (unknown origin) incubated for 2 hrs in presence of ATP by ADP-kinaseGlo reagent based assay"}, "[14]": {"experiment": "Half-life in female BALB/c mouse at 1 mg/kg, iv measured after 12 hrs by LC-MS/MS analysis", "format": "ADME, organism-based", "conditions": "in vivo"}, "[15]": {"system": "HUVEC", "experiment": "Cytotoxicity against HUVEC cells assessed as effect on cell proliferation at 5 to 20 uM incubated for 72 hrs by Celltiter-luminescence analysis", "format": "toxicity, cell-based", "conditions": "human, dose 5-20 µM"}, "[16]": {"target": "Phosphatidylinositol 4,5-bisphosphate 3-kinase catalytic subunit beta isoform (Homo sapiens, UniProt P42338)", "sequence (P42338 whole entry, canonical isoform)": "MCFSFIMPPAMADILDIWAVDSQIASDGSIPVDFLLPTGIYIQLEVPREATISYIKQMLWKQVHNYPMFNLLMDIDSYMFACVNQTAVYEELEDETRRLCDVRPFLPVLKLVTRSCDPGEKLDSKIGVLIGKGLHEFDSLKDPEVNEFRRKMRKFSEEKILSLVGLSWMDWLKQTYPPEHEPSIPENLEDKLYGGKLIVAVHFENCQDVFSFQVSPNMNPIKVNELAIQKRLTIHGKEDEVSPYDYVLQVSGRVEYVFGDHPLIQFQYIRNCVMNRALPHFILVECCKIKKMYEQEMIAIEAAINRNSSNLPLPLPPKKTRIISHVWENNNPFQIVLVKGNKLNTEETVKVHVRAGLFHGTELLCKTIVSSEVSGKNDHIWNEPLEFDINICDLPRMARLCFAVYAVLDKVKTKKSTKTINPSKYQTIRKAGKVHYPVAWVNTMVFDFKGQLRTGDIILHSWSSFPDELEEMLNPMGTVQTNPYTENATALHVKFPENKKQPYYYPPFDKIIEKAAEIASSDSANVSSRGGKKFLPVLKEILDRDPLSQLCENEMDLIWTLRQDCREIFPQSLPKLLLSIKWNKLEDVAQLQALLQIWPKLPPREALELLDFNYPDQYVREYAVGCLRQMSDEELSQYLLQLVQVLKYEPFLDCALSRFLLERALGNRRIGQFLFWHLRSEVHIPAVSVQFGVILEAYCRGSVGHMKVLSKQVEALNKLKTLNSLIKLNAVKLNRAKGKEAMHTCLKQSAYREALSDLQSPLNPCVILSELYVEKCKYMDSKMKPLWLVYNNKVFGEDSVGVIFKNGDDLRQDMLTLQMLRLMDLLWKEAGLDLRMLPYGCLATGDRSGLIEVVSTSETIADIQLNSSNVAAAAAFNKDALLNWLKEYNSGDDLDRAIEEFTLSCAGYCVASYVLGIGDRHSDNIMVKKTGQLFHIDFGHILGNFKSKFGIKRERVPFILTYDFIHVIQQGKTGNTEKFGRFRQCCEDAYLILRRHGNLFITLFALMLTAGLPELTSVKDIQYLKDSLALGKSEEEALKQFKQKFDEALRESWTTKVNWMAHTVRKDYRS", "experiment": "Inhibition of PI3Kbeta (unknown origin) incubated for 2 hrs in presence of ATP by ADP-kinaseGlo reagent based assay"}, "[17]": {"system": "SU-DHL-6", "experiment": "Induction of apoptosis in human SU-DHL-6 cells assessed as necrotic cells at 0.25 uM incubated for 24 hrs by Annexin V-FITC/PI staining based flow cytometric analysis (reference value: 0.246 %)", "format": "functional"}, "[18]": {"experiment": "Tmax in female BALB/c mouse at 20 mg/kg, po measured after 24 hrs by LC-MS/MS analysis", "format": "ADME, organism-based", "conditions": "in vivo"}, "[19]": {"system": "PI3-kinase p110-alpha/p85-alpha (Homo sapiens), P27986+P42336 [E542K]", "experiment": "Inhibition of human p110alpha-E545K mutant/p85alpha at 1 uM relative to control", "format": "protein-complex assay"}, "[20]": {"system": "SU-DHL-6", "experiment": "Inhibition of AKT phosphorylation in human SU-DHL-6 cells incubated for 12 hrs by Western blot analysis", "format": "cell-based", "conditions": "dose 0.25-1 µM"}, "[21]": {"system": "SUD4", "experiment": "Induction of apoptosis in human SU-DHL-4 cells assessed as early apoptotic cells at 1 uM incubated for 24 hrs by Annexin V-FITC/PI staining based flow cytometric analysis (reference value: 25.3 %)", "format": "functional"}, "[22]": {"system": "SUD4", "experiment": "Antiproliferative activity against human SU-DHL-4 cells assessed as inhibition of cell proliferation by measuring reduction in cell count incubated for 6 days by photographic analysis", "format": "functional, cell-based", "conditions": "dose 25-100 nM, time 6.0 day"}, "[23]": {"target": "PI3K p110 beta/p85 alpha (Homo sapiens) (UniProt P27986+P42338)", "sequence (P27986 2-724 limits assumed)": "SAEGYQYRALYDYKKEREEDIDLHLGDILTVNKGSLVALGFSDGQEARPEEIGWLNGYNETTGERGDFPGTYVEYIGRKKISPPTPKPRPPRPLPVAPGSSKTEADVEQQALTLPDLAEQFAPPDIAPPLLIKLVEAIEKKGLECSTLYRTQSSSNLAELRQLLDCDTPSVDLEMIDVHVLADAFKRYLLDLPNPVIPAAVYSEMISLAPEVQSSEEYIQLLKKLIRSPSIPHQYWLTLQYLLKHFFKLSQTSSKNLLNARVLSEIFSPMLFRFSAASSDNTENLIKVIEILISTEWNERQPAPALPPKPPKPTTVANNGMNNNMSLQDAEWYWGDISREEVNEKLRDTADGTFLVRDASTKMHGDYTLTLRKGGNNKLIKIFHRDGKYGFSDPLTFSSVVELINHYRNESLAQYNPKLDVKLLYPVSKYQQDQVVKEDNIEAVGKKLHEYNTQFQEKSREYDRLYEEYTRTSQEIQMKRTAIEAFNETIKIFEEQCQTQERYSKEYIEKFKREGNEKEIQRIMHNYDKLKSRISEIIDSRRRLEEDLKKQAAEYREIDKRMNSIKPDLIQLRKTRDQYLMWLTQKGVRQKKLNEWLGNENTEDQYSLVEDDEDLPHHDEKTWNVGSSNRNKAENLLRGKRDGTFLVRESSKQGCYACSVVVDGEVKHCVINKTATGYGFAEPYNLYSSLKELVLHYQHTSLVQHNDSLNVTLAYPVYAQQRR", "sequence (P42338 whole entry partner)": "as the sequence (P42338 whole entry, canonical isoform) above", "experiment": "Inhibition of human p110beta/p85alpha at 1 uM relative to control", "format": "protein-complex assay"}, "[24]": {"system": "SU-DHL-6", "experiment": "Antiproliferative against activity human SU-DHL-6 cells assessed as inhibition of cell growth incubated for 72 hrs by Celltiter-luminescence analysis", "format": "functional, cell-based", "conditions": "SU-DHL-6, 72 h"}, "[25]": {"species": "Homo sapiens", "experiment": "Inhibition of human p110alpha/p65alpha at 1 uM relative to control"}, "[26]": {"target": "Phosphatidylinositol 4-phosphate 3-kinase C2 domain-containing subunit alpha (Homo sapiens) (UniProt O00443)", "sequence (O00443 whole entry, the tested form may be a part)": "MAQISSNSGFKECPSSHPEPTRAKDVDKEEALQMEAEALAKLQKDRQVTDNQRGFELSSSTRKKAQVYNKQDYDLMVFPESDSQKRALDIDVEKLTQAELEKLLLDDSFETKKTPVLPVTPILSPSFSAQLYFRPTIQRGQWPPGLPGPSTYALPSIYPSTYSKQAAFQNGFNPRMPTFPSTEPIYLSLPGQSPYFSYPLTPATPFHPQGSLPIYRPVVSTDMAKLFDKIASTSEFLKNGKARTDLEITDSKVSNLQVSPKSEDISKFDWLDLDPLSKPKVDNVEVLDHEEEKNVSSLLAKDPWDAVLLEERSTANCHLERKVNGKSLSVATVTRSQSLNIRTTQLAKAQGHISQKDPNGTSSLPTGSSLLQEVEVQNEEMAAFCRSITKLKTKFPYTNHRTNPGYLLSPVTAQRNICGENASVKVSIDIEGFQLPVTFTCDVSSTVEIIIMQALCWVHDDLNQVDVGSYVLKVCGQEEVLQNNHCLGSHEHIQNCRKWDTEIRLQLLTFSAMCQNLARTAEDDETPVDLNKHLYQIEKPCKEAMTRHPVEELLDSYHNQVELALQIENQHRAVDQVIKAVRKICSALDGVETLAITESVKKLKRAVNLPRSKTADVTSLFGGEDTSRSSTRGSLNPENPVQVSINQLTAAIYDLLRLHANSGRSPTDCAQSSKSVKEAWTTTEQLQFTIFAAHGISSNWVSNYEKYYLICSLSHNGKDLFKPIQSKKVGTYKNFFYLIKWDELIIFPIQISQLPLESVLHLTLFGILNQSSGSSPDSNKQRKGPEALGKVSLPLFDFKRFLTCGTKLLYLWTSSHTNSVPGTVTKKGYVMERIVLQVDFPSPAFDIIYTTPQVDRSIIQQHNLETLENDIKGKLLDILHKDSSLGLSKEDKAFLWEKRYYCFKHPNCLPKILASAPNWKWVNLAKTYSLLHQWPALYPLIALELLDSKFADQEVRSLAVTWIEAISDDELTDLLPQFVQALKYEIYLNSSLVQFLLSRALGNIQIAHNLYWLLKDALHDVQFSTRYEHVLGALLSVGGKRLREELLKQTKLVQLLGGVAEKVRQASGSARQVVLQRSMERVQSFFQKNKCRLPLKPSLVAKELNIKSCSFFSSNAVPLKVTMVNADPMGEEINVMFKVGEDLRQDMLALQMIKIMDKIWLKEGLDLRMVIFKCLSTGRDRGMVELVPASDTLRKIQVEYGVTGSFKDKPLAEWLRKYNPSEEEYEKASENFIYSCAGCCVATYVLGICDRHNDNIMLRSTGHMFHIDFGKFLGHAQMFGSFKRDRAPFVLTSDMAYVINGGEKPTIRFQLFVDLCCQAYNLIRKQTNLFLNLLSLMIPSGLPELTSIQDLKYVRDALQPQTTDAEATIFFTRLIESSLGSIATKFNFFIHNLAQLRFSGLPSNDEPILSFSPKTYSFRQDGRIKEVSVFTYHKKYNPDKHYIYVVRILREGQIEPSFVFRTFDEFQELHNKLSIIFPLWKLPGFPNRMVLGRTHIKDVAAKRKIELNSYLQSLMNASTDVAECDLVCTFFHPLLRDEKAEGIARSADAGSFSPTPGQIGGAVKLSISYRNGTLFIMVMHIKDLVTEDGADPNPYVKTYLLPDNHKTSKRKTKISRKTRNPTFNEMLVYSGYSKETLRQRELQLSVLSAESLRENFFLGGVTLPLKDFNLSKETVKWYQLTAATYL", "experiment": "Inhibition of human PI3KC2alpha at 1 uM relative to control"}, "[27]": {"system": "SU-DHL-6", "experiment": "Antitumor activity against human SU-DHL-6 cells xenografted in female BALB/c mouse model assessed as reduction in phosphorylated AKT level in tumor at 20 mg/kg, po administered once daily via gavage for 15 days by Western blot analysis", "format": "functional, organism-based", "conditions": "time 15.0 day"}, "[28]": {"system": "SUD4", "experiment": "Cell cycle arrest in human SU-DHL-4 cells assessed as accumulation of cells at S phase incubated for 12 hrs by PI staining based flow cytometric analysis", "format": "functional", "conditions": "dose 0.25-1 µM"}, "[29]": {"experiment": "Tmax in female BALB/c mouse at 1 mg/kg, iv measured after 12 hrs by LC-MS/MS analysis", "format": "ADME, organism-based", "conditions": "in vivo"}, "[30]": {"system": "SUD4", "experiment": "Downregulation of c-Myc expression in human SU-DHL-4 cells at 0.25 to 1 uM incubated for 12 hrs by Western blot analysis", "format": "functional, cell-based", "conditions": "dose 0.25-1 µM"}, "[31]": {"experiment": "Toxicity in female BALB/c mouse model xenografted with human SU-DHL-6 cells assessed as effect on body weight at 20 mg/kg, po administered once daily via gavage for 15 days", "format": "organism-based", "conditions": "in vivo, 360 h, time 15 day"}, "[32]": {"system": "SUD4", "experiment": "Induction of apoptosis in human SU-DHL-4 cells assessed as viable cells at 1 uM incubated for 24 hrs by Annexin V-FITC/PI staining based flow cytometric analysis (reference value: 65.2 %)", "format": "functional", "conditions": "read-out: Activity"}, "[33]": {"system": "SU-DHL-6", "experiment": "Induction of apoptosis in human SU-DHL-6 cells assessed as viable cells at 1 uM incubated for 24 hrs by Annexin V-FITC/PI staining based flow cytometric analysis (reference value: 61.2 %)", "format": "functional", "conditions": "read-out: Activity"}, "[34]": {"system": "SU-DHL-6", "experiment": "Antitumor activity against human SU-DHL-6 cells xenografted in female BALB/c mouse model assessed as tumor growth inhibition at 20 mg/kg, po administered once daily via gavage for 15 days relative to control", "format": "functional", "conditions": "SU-DHL-6, 360 h, time 15 day, read-out: TGI"}, "[35]": {"target": "Bromodomain testis-specific protein (Homo sapiens, UniProt Q58F21)", "experiment": "Inhibition of His-tagged BRDT-BD1 (unknown origin) incubated for 30 mins in presence of ATP by Alphascreen assay"}}, "note": "Activity calls are given as the source filed them. The calls are words filed in the database; no cut-off is given here.", "data": [{"smiles": "Cn1cc(-c2nc(N3CCOCC3)c3sc(CN4CCC(C(C)(C)O)CC4)cc3n2)c2cc[nH]c2c1=O", "values": [{"measurement": "Activity", "setting": "[1]", "value": 32.4, "unit": "%"}, {"measurement": "inhibition", "setting": "[2]", "value": 57.2, "unit": "%"}, {"measurement": "half-life", "setting": "[3]", "value": 3.8, "unit": "h"}, {"measurement": "inhibition", "setting": "[4]", "value": "Active"}, {"measurement": "clearance", "setting": "[5]", "value": 112, "unit": "mL/min/kg"}, {"measurement": "Activity", "setting": "[6]", "value": "Active; Modest Effect Observed"}, {"measurement": "Activity", "setting": "[7]", "value": "Active; Modest Effect Observed"}, {"measurement": "Activity", "setting": "[8]", "value": 6.32, "unit": "%"}, {"measurement": "bioavailability", "setting": "[9]", "value": 74.8, "unit": "%"}, {"measurement": "Activity", "setting": "[10]", "value": 41.8, "unit": "%"}, {"measurement": "IC50", "setting": "[11]", "value": 0.019, "unit": "µM"}, {"measurement": "viability at 0.5 µM", "setting": "[12]", "value": 49.7, "unit": "%"}, {"measurement": "IC50", "setting": "[13]", "value": "> 10", "unit": "µM"}, {"measurement": "half-life", "setting": "[14]", "value": 2, "unit": "h"}, {"measurement": "Activity", "setting": "[15]", "value": "Non-toxic"}, {"measurement": "IC50", "setting": "[16]", "value": 4.75, "unit": "µM"}, {"measurement": "Activity", "setting": "[17]", "value": 0.481, "unit": "%"}, {"measurement": "Tmax", "setting": "[18]", "value": 0.5, "unit": "h"}, {"measurement": "inhibition", "setting": "[19]", "value": 17.3, "unit": "%"}, {"measurement": "inhibition", "setting": "[20]", "value": "Dose-dependent-effect"}, {"measurement": "Activity", "setting": "[21]", "value": 45.3, "unit": "%"}, {"measurement": "Activity", "setting": "[22]", "value": "Dose-dependent-effect; Stronger Effect Observed At Lower Concentration Than Those Of Sf2523"}, {"measurement": "inhibition", "setting": "[23]", "value": 44.3, "unit": "%"}, {"measurement": "IC50", "setting": "[24]", "value": 0.061, "unit": "µM"}, {"measurement": "inhibition", "setting": "[25]", "value": 41.9, "unit": "%"}, {"measurement": "inhibition", "setting": "[26]", "value": 3.4, "unit": "%"}, {"measurement": "Activity", "setting": "[27]", "value": "Active"}, {"measurement": "Activity", "setting": "[28]", "value": "Dose-dependent-effect"}, {"measurement": "Tmax", "setting": "[29]", "value": 1.98, "unit": "min"}, {"measurement": "Activity", "setting": "[30]", "value": "Active"}, {"measurement": "Activity", "setting": "[31]", "value": "Non-toxic"}, {"measurement": "viability at 1 µM", "setting": "[32]", "value": 28.1, "unit": "%"}, {"measurement": "viability at 1 µM", "setting": "[33]", "value": 41.8, "unit": "%"}, {"measurement": "inhibition in vivo at 20 mg/kg", "setting": "[34]", "value": 70.8, "unit": "%"}, {"measurement": "IC50", "setting": "[35]", "value": 0.046, "unit": "µM"}]}]}
